Source: patent publication US20050222271A1, “Novel amorphous form of memantine hydrochloride” (priority 2004, published 2005)

Assay: Solubility (complete dissolution) of memantine hydrochloride in solvents
Type: physicochemical
Method: In particular, memantine hydrochloride is soluble in water, allowing the complete dissolution of memantine hydrochloride at room temperature at a concentration of 50 mg per milliliter (ml). The use of a relatively concentrated solution, e.g. about 50 mg per ml is therefore preferred.
In a first step of the distillation process, memantine hydrochloride is preferably dissolved in an […] solvent; more preferably dissolved in a straight or branched chain C1-C4 alcohol solvent, and most preferably dissolved in methanol or ethanol to form a solution. Memantine hydrochloride is soluble in methanol or ethanol, allowing the complete dissolution of memantine hydrochloride at ambient temperature.
(§1) In particular, memantine hydrochloride is soluble in methanol, allowing the complete dissolution of memantine hydrochloride in methanol at ambient temperature with a concentration of 30 mg per milliliter (ml). The use of a relatively concentrated solution, e.g. about 30 mg per ml is therefore preferred for methanol.
as §1, with “ethanol,” for “methanol,”, “ethanol” for “methanol”, “20” for “30”, “ml.” for “milliliter (ml).”, “ethanol.” for “methanol.”

solubility in ethanol (complete dissolution with a concentration of) (ethanol, ambient temperature): ≥ 20 mg per ml
solubility in methanol (complete dissolution with a concentration of) (methanol, ambient temperature): ≥ 30 mg per milliliter (ml)
solubility in water (complete dissolution at a concentration of) (water, room temperature): ≥ 50 mg per milliliter (ml)
SMILES: CC12CC3CC(C)(C1)CC(N)(C3)C2.Cl [memantine hydrochloride, 1-amino-3,5-dimethyltricyclo[3,3,1,1^3,7]decane hydrochloride]
